# Laboratory results from patent publication US5834259A, “Process and composition for preparing D-aspartic acid” (Monsanto Company, priority 1996, dated 1998).
# Columns and labels:
# Format in all cases: biochemical, E. coli K12
# [1] = target: T1, L-aspartate-α-decarboxylase (Escherichia coli, UniProt P0A790); assay: Bioconversion of 0.5M D/L-aspartate with NS3291 cells (Example 3)
# T1 construct: expressed in transfected cells; host or cells: E. coli W3110 transformed with pIF309 = strain NS3291 (ATCC 98675), whole cells
# T1 sequence (P0A790 25-126): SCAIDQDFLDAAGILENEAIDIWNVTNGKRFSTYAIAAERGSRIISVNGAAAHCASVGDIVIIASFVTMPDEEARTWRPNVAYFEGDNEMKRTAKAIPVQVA
# T1 sequence (P0A790 1-24): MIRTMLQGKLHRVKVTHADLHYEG
# Method: 66.5 g (0.5M) D/L-aspartate (Sigma, A-9006) was weighed into a 2 L beaker and the pH adjusted to 7.0 with 10N NaOH. The volume was brought to 963 ml with deionized H2 O. 137 ml of cells (NS 3291, described above) were added at a packed cell volume ("PCV") of 7.31 g/10 ml cells resulting in a final volume of 1.1 L. Samples (approximately 1 ml each) were removed over time, centrifuged and the supernatant fluid was analyzed by HPLC for D- and L-aspartic acid content.
# (§1) In all of the Examples herein, D- and L-aspartic acid isomers were quantified by HPLC using the following precolumn derivatization method. Aspartic acid was converted into diastereomers using ortho-phthalaldehyde and N-acetyl-L-cysteine. Separation of the diastereomers was achieved on a Supelcosil™ LC-18DB, 3μ, 150×4.6 mm column using a mobile phase of A: 20% methanol/80% triethylamine phosphate and B: methanol, and a step gradient as follows: […]
# Retention times were 4.19 minutes and 4.54 minutes for D-aspartic acid and L-aspartic acid, respectively.
# Samples from bioconversions were centrifuged to remove cells in a microcentrifuge and the supernatant fluid diluted appropriately such that the value determined from the HPLC fell within the linear region of the standard curve. These dilutions were usually between 1:100 and 1:200, made with deionized water.
# [2] = target: T1, L-aspartate-α-decarboxylase; assay: Re-treatment of Example 3 supernatant fluid with fresh cells (Example 4); conditions: 37° C.
# From the text: as §1
# In this Example the supernatant fluid from Example 3 was re-treated with fresh cells. The reaction from Example 3, stopped at 68 hours, was centrifuged for 45 minutes in a GS-3 rotor at 7000 rpm. The supernatant fluid, 990 ml, was separated from the cells. 963 ml of this supernatant fluid was mixed with 137 ml fresh cells and placed in a 2 L fermentor. Bioconversion took place with mixing at 300 rpm, without automatic pH control and at a temperature of 37° C. Samples, approximately 1 ml, were removed over time and analyzed as in Example 3.
# [3] = target: T1, L-aspartate-α-decarboxylase; assay: NH4OH neutralized 1.0M D/L-aspartate substrate (Example 7); conditions: 1.0M, NH4OH neutralized, 37° C.
# Method: Cells were stored frozen at -80° C. 133.1 g (1 mol) D/L-aspartic acid was dissolved in approximately 600 ml deionized H2 O and adjusted to a pH of about 7 with concentrated NH4 OH. The final volume of substrate was brought to 963 ml to which was added 137 ml cells, freshly thawed. The mixture was placed in the 2 L fermentor and the temperature adjusted to 37° C. No automatic pH control was used, however, the pH was monitored as samples were removed and the pH adjusted with 50% NH4 OH. Samples, approximately 1 ml, were removed periodically, centrifuged, and the supernatant fluid was stored frozen prior to diluting and HPLC analysis.
# [4] = target: T1, L-aspartate-α-decarboxylase; assay: Temperature study, 50° C. (Example 9); conditions: for concentration in supernatant fluid / percent remaining: 1.0M, 100 g/l cells
# Method: 133.1 g (1 mol) of D/L-aspartic acid was dissolved in deionized H2 O and the pH was adjusted to 7.0 with 10N NaOH, approximately 100 ml. Cells, freshly thawed from -80° C., were added to achieve a final concentration of 100 g/l. Three 2 L fermentors were each charged with 963 ml of substrate solution and 137 ml of cells and then heated to 37° C. and 45° C. while mixing at 300 rpm or heated to 50° C. while mixing at 450 rpm. Samples, approximately 1 ml, were removed over time and pH adjusted to 7.0 with either NaOH or HCl. After centrifugation to remove cells, the supernatant fluid was analyzed for both D- and L-aspartic acid.
compound,measurement,setting,value
"N[C@H](CC(=O)O)C(=O)O [D-Asp, D-aspartic acid]",percent remaining,[1]; 5.5000 hr,100.07%
same,percent remaining,[1]; 24.500 hr,99.829%
same,percent remaining,[1]; 26.500 hr,94.676%
same,percent remaining,[1]; 32.500 hr,95.870%
same,percent remaining,[1]; 47.500 hr,95.768%
same,percent remaining,[1]; 52.000 hr,96.894%
same,percent remaining,[1]; 68.000 hr,87.099%
same,concentration in supernatant fluid,[2]; 0.0000 hr,21.450 mg/mL
same,concentration in supernatant fluid,[2]; 2.7500 hr,21.350 mg/mL
same,percent remaining,[2]; 2.7500 hr,99.534%
same,concentration in supernatant fluid,[2]; 13.500 hr,21.190 mg/mL
same,percent remaining,[2]; 13.500 hr,98.788%
same,concentration in supernatant fluid,[2]; 15.000 hr,20.770 mg/mL
same,percent remaining,[2]; 15.000 hr,96.830%
same,concentration in supernatant fluid,[2]; 19.500 hr,21.480 mg/mL
same,percent remaining,[2]; 19.500 hr,100.14%
same,concentration in supernatant fluid,[2]; 23.500 hr,20.880 mg/mL
same,percent remaining,[2]; 23.500 hr,97.343%
same,concentration in supernatant fluid,[2]; 39.000 hr,19.080 mg/mL
same,percent remaining,[2]; 39.000 hr,88.951%
same,concentration in supernatant fluid,[2]; 47.000 hr,17.280 mg/mL
same,percent remaining,[2]; 47.000 hr,80.559%
same,concentration in supernatant fluid,[2]; 51.750 hr,17.010 mg/mL
same,percent remaining,[2]; 51.750 hr,79.301%
same,concentration in supernatant fluid,[2]; 68.500 hr,14.900 mg/mL
same,percent remaining,[2]; 68.500 hr,69.464%
same,concentration in supernatant fluid,[3]; 0.0000 hr,55.260 mg/mL
same,concentration in supernatant fluid,[3]; 3.0000 hr,54.670 mg/mL
same,percent remaining,[3]; 3.0000 hr,98.932%
same,concentration in supernatant fluid,[3]; 6.0000 hr,49.100 mg/mL
same,percent remaining,[3]; 6.0000 hr,88.853%
same,concentration in supernatant fluid,[3]; 9.0000 hr,47.810 mg/mL
same,percent remaining,[3]; 9.0000 hr,86.518%
same,concentration in supernatant fluid,[3]; 19.000 hr,43.490 mg/mL
same,percent remaining,[3]; 19.000 hr,78.701%
same,concentration in supernatant fluid,[3]; 23.500 hr,39.120 mg/mL
same,percent remaining,[3]; 23.500 hr,70.793%
same,concentration in supernatant fluid,[3]; 28.000 hr,36.290 mg/mL
same,percent remaining,[3]; 28.000 hr,65.671%
same,concentration in supernatant fluid,[3]; 32.500 hr,33.540 mg/mL
same,percent remaining,[3]; 32.500 hr,60.695%
same,concentration in supernatant fluid,[3]; 43.000 hr,30.370 mg/mL
same,percent remaining,[3]; 43.000 hr,54.958%
same,concentration in supernatant fluid,[3]; 49.000 hr,21.580 mg/mL
same,percent remaining,[3]; 49.000 hr,39.052%
same,stability of the isomer,[4],stable
same,concentration in supernatant fluid,[4]; 0.000 hr,54.89 mg/mL
same,concentration in supernatant fluid,[4]; 1.000 hr,54.30 mg/mL
same,percent remaining,[4]; 1.000 hr,52.78%
same,concentration in supernatant fluid,[4]; 3.000 hr,58.01 mg/mL
same,percent remaining,[4]; 3.000 hr,40.61%
same,concentration in supernatant fluid,[4]; 5.0000 hr,58.16 mg/mL
same,percent remaining,[4]; 5.0000 hr,36.97%
same,concentration in supernatant fluid,[4]; 7.000 hr,58.51 mg/mL
same,percent remaining,[4]; 7.000 hr,35.69%
same,concentration in supernatant fluid,[4]; 9.000 hr,58.88 mg/mL
same,percent remaining,[4]; 9.000 hr,33.99%
same,concentration in supernatant fluid,[4]; 13.50 hr,59.62 mg/mL
same,percent remaining,[4]; 13.50 hr,34.19%
same,concentration in supernatant fluid,[4]; 23.00 hr,56.71 mg/mL
same,percent remaining,[4]; 23.00 hr,31.98%
same,concentration in supernatant fluid,[4]; 25.00 hr,59.85 mg/mL
same,percent remaining,[4]; 25.00 hr,31.86%
same,concentration in supernatant fluid,[4]; 27.00 hr,56.87 mg/mL
same,percent remaining,[4]; 27.00 hr,26.89%
same,concentration in supernatant fluid,[4]; 32.00 hr,57.30 mg/mL
same,percent remaining,[4]; 32.00 hr,25.85%
same,concentration in supernatant fluid,[4]; 37.50 hr,58.48 mg/mL
same,percent remaining,[4]; 37.50 hr,27.54%
same,concentration in supernatant fluid,[4]; 47.00 hr,57.93 mg/mL
same,percent remaining,[4]; 47.00 hr,25.58%
same,concentration in supernatant fluid,[4]; 52.00 hr,58.74 mg/mL
same,percent remaining,[4]; 52.00 hr,27.28%
same,concentration in supernatant fluid,[4]; 57.00 hr,65.56 mg/mL
same,percent remaining,[4]; 57.00 hr,32.42%
same,concentration in supernatant fluid,[4]; 71.00 hr,57.17 mg/mL
same,percent remaining,[4]; 71.00 hr,25.52%
same,concentration in supernatant fluid,[4]; 77.00 hr,57.85 mg/mL
same,percent remaining,[4]; 77.00 hr,25.86%
same,concentration in supernatant fluid,[4]; 81.00 hr,57.41 mg/mL
same,percent remaining,[4]; 81.00 hr,25.54%
same,concentration in supernatant fluid,[4]; 99.75 hr,59.36 mg/mL
same,percent remaining,[4]; 99.75 hr,26.14%
